The subject of data set [1] is MV-4-11 (human, Acute Myeloid Leukemia cell line) cells. Kind of data set: Cell growth inhibition assay, GI50 of MV-4-11. Type of data set: cell-based. Conditions: Homo sapiens, MV4-11, 72 h, MV-4-11 cells. The essentials: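 MV-4-11 AML cells (5×10^4/well, IMDM with 10% FBS) treated in duplicate with serially diluted compounds for 72 hours at 37 °C. Viability read as absorbance at 490 nm after CellTiter 96 Aqueous One (MTS) addition; GI50 calculated from the concentration-response.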

Data set [2] has as its target cDNA-expressed human hepatic CYP3A4 (Homo sapiens (Human), UniProt P08684). In words: Measurement of CYP (IC50 of P450 CYP3A4), BFC substrate. Type of data set: in vitro ADME. Conditions: 20 minutes. The essentials:
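cDNA-expressed human CYP3A4 supersomes in 0.1M potassium phosphate pH 7.4 with 8.3 mM MgCl2, 1.67 mM EDTA and 0.25 mM NADPH; compounds in acetonitrile (<1% final). Reaction started with 30 µM BFC, 20 min at 37. 7-Hydroxy-4-trifluoromethyl-coumarin read by fluorescence (ex 409/em 530 nm).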

Chain of cDNA-expressed human hepatic CYP3A4 (P08684 whole entry): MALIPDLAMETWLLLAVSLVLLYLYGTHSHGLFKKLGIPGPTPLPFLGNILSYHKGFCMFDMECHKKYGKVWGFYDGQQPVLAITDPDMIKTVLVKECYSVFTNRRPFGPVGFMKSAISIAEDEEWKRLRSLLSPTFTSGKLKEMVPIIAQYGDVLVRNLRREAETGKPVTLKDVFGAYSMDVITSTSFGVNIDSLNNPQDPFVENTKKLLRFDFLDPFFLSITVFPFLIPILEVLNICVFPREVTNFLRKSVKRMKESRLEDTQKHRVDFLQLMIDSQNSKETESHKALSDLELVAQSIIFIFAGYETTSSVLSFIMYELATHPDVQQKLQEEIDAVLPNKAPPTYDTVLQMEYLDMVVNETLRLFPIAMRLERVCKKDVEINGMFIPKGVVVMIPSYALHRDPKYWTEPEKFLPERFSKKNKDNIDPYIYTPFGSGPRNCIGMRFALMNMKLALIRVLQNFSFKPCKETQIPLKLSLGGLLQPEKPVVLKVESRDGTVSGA

As a reminder, the GI50 is the concentration at which growth is held to half of that of the control. A higher GI50 goes with lower sensitivity of the cells. A word on the IC50: it is the concentration that gives 50% inhibition. As for `C=CCN1CC(=O)N2[C@@H](Cc3ccc(O)cc3)C(=O)N(Cc3cccc4c(C(=O)NC5CCN(C(=O)c6ccc(N7CCN(C)CC7)cc6)CC5)cn(C)c34)C[C@@H]2N1C(=O)NCc1ccccc1` [Compound F-67], the GI50 in data set [1] was 2.5 nM. Besides, inhibition in data set [2] was half-maximal at 9650 nM (IC50).

Regarding `C=CCN1CC(=O)N2[C@@H](Cc3ccc(O)cc3)C(=O)N(Cc3cccc4c(C(=O)NC5CCN(C(=O)c6ccc(N(C)C)cc6)CC5)cn(C)c34)C[C@@H]2N1C(=O)NCc1ccccc1` [Compound F-66], the GI50 in data set [1] is 17.5 nM. Besides, 6150 nM corresponded to half-maximal inhibition in data set [2] (IC50).

In data set [1], `C=CCN1CC(=O)N2[C@@H](Cc3ccc(O)cc3)C(=O)N(Cc3cccc4c(C(=O)N(C)CCN5CCOCC5)cn(C)c34)C[C@@H]2N1C(=O)NCc1ccccc1` [Compound F-26] showed a 50% growth inhibitory concentration (GI50) of 19.8 nM. In addition, in data set [2], the IC50 came to 2860 nM.

Compound `C=CCN1CC(=O)N2[C@@H](Cc3ccc(O)cc3)C(=O)N(Cc3cccc4c(-c5ccc(NC(=O)c6ccc(N(C)C)cc6)cc5)cn(C)c34)C[C@@H]2N1C(=O)NCc1ccccc1` [Compound D-51] had a GI50 in data set [1] of 5.4 nM. The IC50 in data set [2] was > 25000 nM.

`C=CCN1CC(=O)N2[C@@H](Cc3ccc(O)cc3)C(=O)N(Cc3cccc4c(-c5ccc(NC(=O)c6ccccc6)cc5)cn(C)c34)C[C@@H]2N1C(=O)NCc1ccccc1` [Compound D-48] yielded a GI50 in data set [1] of 1.9 nM. Further, the IC50 in data set [2] is > 25000 nM.

Take `C=CCN1CC(=O)N2[C@@H](Cc3ccc(O)cc3)C(=O)N(Cc3cccc4c(-c5ccc(C#N)cc5)cn(C)c34)C[C@@H]2N1C(=O)NCc1ccccc1` [Compound H-2]: the concentration for 50% growth inhibition (GI50) in data set [1] turned out to be 17.8 nM. The compound further returned an IC50 in data set [2] of 9330 nM.

With `C=CCN1CC(=O)N2C(Cc3ccc(O)cc3)C(=O)N(Cc3cccc4c(C(=O)Nc5ccc(N6CCC(N7CCCCC7)CC6)nc5)cn(C)c34)CC2N1C(=O)NCc1ccccc1` (stereo not drawn) [Compound G-55], the concentration for 50% growth inhibition (GI50) in data set [1] is 1.3 nM. Besides, in data set [2], the midpoint of inhibition, the IC50, lay at 2370 nM.

Turning to `C=CCN1CC(=O)N2[C@@H](Cc3ccc(O)cc3)C(=O)N(Cc3cccc4c(-c5ccc(C(=O)Nc6ccc(OC)cc6)cc5)cn(C)c34)C[C@@H]2N1C(=O)NCc1ccccc1` [Compound D-22], the GI50 in data set [1] came to 4.2 nM. The same compound came in with an IC50 in data set [2] of 19500 nM.

`C=CCN1CC(=O)N2C(CN(Cc3cccc4c(C(=O)Nc5ccc(N6CCC7CCCN7C6)nc5)cn(C)c34)C(=O)[C@@H]2Cc2ccc(O)cc2)N1C(=O)NCc1ccccc1` (stereo partly drawn) [Compound G-66] yielded a GI50 in data set [1] of 1.3 nM. The midpoint of inhibition in data set [2], the IC50, lay at 4600 nM.

Consider `C=CCN1CC(=O)N2[C@@H](Cc3ccc(O)cc3)C(=O)N(Cc3cccc4c(C(=O)Nc5ccc(OCCCN6CCCCC6)nc5)cn(C)c34)C[C@@H]2N1C(=O)NCc1ccccc1` [Compound G-31], for which growth in data set [1] was halved (GI50) at 2.7 nM. In data set [2], this compound showed an IC50 of 7670 nM.

In turn, `C=CCN1CC(=O)N2[C@@H](Cc3ccc(O)cc3)C(=O)N(Cc3cccc4c(C(=O)Nc5ccc(N6CC(O)C6)nc5)cn(C)c34)C[C@@H]2N1C(=O)NCc1ccccc1` [Compound G-61] had a 50% growth inhibitory concentration (GI50) in data set [1] of 8.5 nM. The compound also had an IC50 in data set [2] of 4870 nM.

Turning to `C=CCN1CC(=O)N2[C@@H](Cc3ccc(O)cc3)C(=O)N(Cc3cccc4c(C(=O)N5CCN6CCN(C(=O)OC(C)(C)C)CC6C5)cn(C)c34)C[C@@H]2N1C(=O)NCc1ccccc1` (stereo partly drawn) [Compound E-47], the concentration for 50% growth inhibition (GI50) in data set [1] stood at 13.5 nM. The compound further showed an IC50 in data set [2] of 2200 nM.

With `C=CCN1CC(=O)N2[C@@H](Cc3ccc(O)cc3)C(=O)N(Cc3cccc4c(-c5ccc(C(=O)Nc6cccc(C(N)=O)c6)cc5)cn(C)c34)C[C@@H]2N1C(=O)NCc1ccccc1` [Compound D-15], it took 2.8 nM to inhibit growth in data set [1] by half (GI50). This compound also yielded an IC50 in data set [2] of 16000 nM.

`C=CCN1CC(=O)N2[C@@H](Cc3ccc(O)cc3)C(=O)N(Cc3cccc4c(C(=O)N5CCC(N6CCOCC6)CC5)cn(C)c34)C[C@@H]2N1C(=O)NCc1ccccc1` [Compound E-65] registered a GI50 in data set [1] of 13 nM. Moreover, it took 2110 nM to reach half-maximal inhibition in data set [2] (IC50).

For the compound `C=CCN1CC(=O)N2[C@@H](Cc3ccc(O)cc3)C(=O)N(Cc3cccc4c(C(=O)N5CCN(C)CC5)cn(C)c34)C[C@@H]2N1C(=O)NCc1ccccc1` [Compound E-4], it took 11.2 nM to inhibit growth in data set [1] by half (GI50). Besides, it took 12200 nM to reach half-maximal inhibition in data set [2] (IC50).

For the origin of these results see US8940739B2, “Compound of a reverse-turn mimetic and a production method and use therefor” (JW Pharmaceutical Corporation, priority 2010, dated 2015).
